Measured values as given in patent publication EP1149092B1, “4- AND 5-ALKYNYLOXINDOLES AND 4- AND 5-ALKENYLOXINDOLES” (F. HOFFMANN-LA ROCHE AG, priority 1998, dated 2000).
One block for each compound: values may come before it.

Tests used:
[1] = molecular target: rat SAPK (isoform β) (Rattus norvegicus, UniProt P49187); assay: SAPK FlashPlate Assay (inhibition of cJun phosphorylation); assay type: biochemical; conditions: GST-cJun substrate, 30 minutes at 37 °C
Experimental: "IC50" refers to the concentration of a particular 4- or 5-alkynyloxindole or 4-or 5-alkenyloxindole required to inhibit 50% of cJun phosphorylation, which is a measure of inhibition of SAPK activity. IC50 can be measured, inter alia, using the assay described herein in Example 102.
Human JNK is highly homologous to rat SAPK. To measure the inhibitory activity of test compounds, the compounds were tested in the rat SAPK assay.
For the SAPK assay, purified GST-cJun (a chimeric protein containing cJun, a natural substrate of JNK) was coated on 96 well FlashPlates (New England Nuclear, Boston, MA). Purified rat SAPK (isoform β, Kyriakis et al. supra) was preincubated with preparations containing MEKK-1 and MKK4 for 30 minutes at 37 °C in assay buffer containing 25 mM HEPES, pH 7.5, 150 mM NaCl, 20 mM MgCl2, 2 mM DTT, 0.001% Tween 20, 1 µM ATP freshly added. In the preincubation step, MEKK-1 phosphorylates and activates MKK-4, which in tum phosphorylates and activates SAPK. The activated SAPK was then added to the cJun coated FlashPlates along with ^33P-ATP (0.32 µCi per reaction) and test compounds. The plates were incubated for 30 minutes at 37 °C, then washed with PBS, 0.01% Tween 20, and counted in the Topcount scintillation counter (Packard Instrument Co., Downers Grove, IL). Dilutions of compounds were tested in duplicate in each assay. The percent inhibition of cJun phosphorylation (a measure of inhibition of SAPK activity) was determined by the following formula: [formula] where "test compound" refers to the average counts per minute of the test duplicates, "nonspecific" refers to the average counts per minute when no SAPK was added, and "total" refers to the average counts per minute when no compound was added.

[2] = tested on: MMP-3; assay: MG-63 Cell-Based Assay, MMP-3 release after IL-1β stimulation (ELISA); conditions: Homo sapiens, MG63 cells, IL-1β stimulated, 24 hours with compound, read-out: IC50 (µM) in MG63 Cells MMP3
From the text: (§1) The MG63 cell line, a human osteosarcoma cell line, was purchased from American Type Culture Collection (ATCC; Rockville, MD) and grown in the medium recommended by ATCC. When stimulated with human IL-1β , MG63 cells release matrix metalloproteinase 3 (MMP-3), an AP-1 dependent inflammatory mediator and IL-6, a NF-κB-dependent mediator. In this assay the ability of a test compound to block MMP-3 expression and not block IL-6 expression is an indication that the compound is a selective inhibitor of the AP-1 transcription pathway.
(§2) On day 1 the cells were plated at 2.5X10^4 cells/well in 96 well plates. After 24 hours, dexamethasone (the assay control) (Sigma, St. Louis, MO) and the test compounds were diluted to appropriate concentrations and added to the MG63 cells. The cells were incubated with the compounds for 24 hours after which the supernatants were removed and analyzed by ELISA.
(§3) In the ELISA, 96 well plates were coated with antibody to MMP-3 or IL-6. Supernatants were added to the coated plates and any antigen (MMP-3 or IL-6) in the supernatant bound to the antibody coated on the plates. The plates were then washed with PBS containing 0.05% Tween 20 (Sigma, St. Louis, MO) and the biotinylated secondary antibody was added. This secondary antibody binds to the already bound antigen creating a "sandwich effect". Plates were washed as described above and horseradish peroxidase (HRP)-streptavidin conjugate (Sigma, St. Louis, MO) was added to the plates. HRP-streptavidin bound to the biotin-antibody conjugate. The plates were washed and TMB substrate (Kirkegaard and Perry Labs, Gaithersburg, MD) was added to the wells. This substrate changes color in the presence of HRP-streptavidin. The intensity of the color (measured at 450 nm) is proportional to the amount of MMP-3 or IL-6 produced by the MG63 cells upon exposure to IL-1β and the test compounds. Optical density values were converted to concentration (pg/ml or Units/ml) based on a standard curve included in the assay. IC50 values for each test compound were determined from the linear regression of a plot of the logarithm of the concentration of compound versus amount of MMP-3 or IL-6 secreted. (The MMP-3 antibodies were prepared in-house using standard hybridoma technology and the IL-6 antibodies were obtained from either Genzyme, Cambridge, MA or Pharmingen, San Diego, CA.).

[3] = tested on: IL-6; assay: MG-63 Cell-Based Assay, IL-6 release after IL-1β stimulation (ELISA); conditions: Homo sapiens, MG63 cells, IL-1β stimulated, 24 hours with compound, read-out: IC50 (µM) in MG63 Cells IL6
From the text: as §1, §2, §3

Chain of rat SAPK (isoform β) (P49187 whole entry, canonical isoform): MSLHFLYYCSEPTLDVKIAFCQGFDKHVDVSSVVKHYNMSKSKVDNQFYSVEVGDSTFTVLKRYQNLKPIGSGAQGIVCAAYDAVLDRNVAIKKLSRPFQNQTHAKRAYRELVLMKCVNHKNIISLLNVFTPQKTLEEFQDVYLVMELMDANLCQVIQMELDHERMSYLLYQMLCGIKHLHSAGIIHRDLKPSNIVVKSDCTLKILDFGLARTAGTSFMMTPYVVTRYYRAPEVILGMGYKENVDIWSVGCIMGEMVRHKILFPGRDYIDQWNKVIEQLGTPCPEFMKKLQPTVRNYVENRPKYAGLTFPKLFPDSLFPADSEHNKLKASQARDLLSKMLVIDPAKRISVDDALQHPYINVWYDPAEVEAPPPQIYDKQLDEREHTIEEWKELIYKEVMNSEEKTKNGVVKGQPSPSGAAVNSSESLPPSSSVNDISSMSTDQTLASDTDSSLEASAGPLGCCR

Compound: COc1cc[nH]c1/C=C1\C(=O)Nc2cccc(C#CC(O)c3cccc(OC)c3OC)c21 (racemic) [EE, rac-(Z)-1,3-Dihydro-4-[3-(2,3-dimethoxyphenyl)-3-hydroxy-1-propynyl]-3-[(3-methoxy-1H-pyrrol-2-yl)methylene]-2H-indol-2-one]
IC50 [1]: < 1 µM
IC50 [2]: < 12.5 µM
IC50 [3]: < 20 µM

Compound: COc1cc[nH]c1/C=C1\C(=O)Nc2cccc(C#CC(O)c3ccccc3)c21 (racemic) [FFF, rac-(Z)-1,3-Dihydro-4-(3-hydroxy-3-phenyl-1-propynyl)-3-[(3-methoxy-1H-pyrrol-2-yl)methylene]-2H-indol-2-one]
IC50 [1]: < 1 µM
IC50 [2]: < 12.5 µM
IC50 [3]: < 20 µM

Compound: COc1ccc(C(O)C#Cc2cccc3c2/C(=C/c2[nH]ccc2OC)C(=O)N3)cc1 (racemic) [H, rac-(Z)-1,3-Dihydro-4-[3-hydroxy-3-(4-methoxyphenyl)-1-propynyl]-3-[(3-methoxy-1H-pyrrol-2-yl)methylene]-2H-indol-2-one]
IC50 [1]: < 1 µM
IC50 [2]: < 12.5 µM
IC50 [3]: < 20 µM

Compound: COc1cc[nH]c1/C=C1\C(=O)Nc2cccc(C#Cc3cccnc3)c21 [CCC, (Z)-1,3-Dihydro-3-[(3-methoxy-1H-pyrrol-2-yl)methylene]-4-[(3-pyridinyl)ethynyl]-2H-indol-2-one]
IC50 [1]: < 1 µM
IC50 [2]: < 12.5 µM
IC50 [3]: > 20 µM

Compound: COc1cc[nH]c1/C=C1\C(=O)Nc2cccc(C#Cc3ccccc3)c21 [D, (Z)-1,3-Dihydro-4-(phenylethynyl)-3-[(3-methoxy-1H-pyrrol-2-yl)methylene]-2H-indol-2-one]
IC50 [1]: < 1 µM
IC50 [2]: < 12.5 µM
IC50 [3]: 20 µM

Compound: COc1ccc(C#Cc2cccc3c2/C(=C/c2[nH]ccc2OC)C(=O)N3)cc1 [G, (Z)-1,3-Dihydro-4-[(4-methoxyphenyl)ethynyl]-3-[(3-methoxy-1H-pyrrol-2-yl)methylene]-2H-indol-2-one]
IC50 [1]: < 1 µM
IC50 [2]: < 12.5 µM
IC50 [3]: < 20 µM

Compound: C#CC(O)c1ccc(OC)c(O)c1 (centres unmarked) [GG, 3-Hydroxy-3-(3-hydroxy-4-methoxyphenyl)-1-propyne]
IC50 [2]: < 12.5 µM
IC50 [3]: < 20 µM

Compound: COc1cc[nH]c1/C=C1\C(=O)Nc2ccc(NC(=O)Cc3cccs3)c(C#Cc3cccnc3)c21 [III, (Z)-N-[2,3-Dihydro-3-[(3-methoxy-1H-pyrrol-2-yl)methylene]-2-oxo-4-[(3-pyridinyl)ethynyl]-1H-indol-5-yl]-2-thiopheneacetamide]
IC50 [2]: < 12.5 µM
IC50 [3]: 20 µM

Now from value to compound:

IC50 [2]: < 12.5 µM
IC50 [3]: < 20 µM
Compound: C#CC(O)c1ccc(O)cc1 (centres unmarked) [P, 3-Hydroxy-3-(4-hydroxyphenyl)-1-propyne]

IC50 [1]: < 1 µM
IC50 [2]: < 12.5 µM
IC50 [3]: 20 µM
Compound: COc1ccc(/C=C/c2cccc3c2/C(=C/c2[nH]ccc2OC)C(=O)N3)cc1OC [QQQ, 1,3-Dihydro-4-[(E)-2-(3,4-dimethoxyphenyl)-ethenyl]-(Z)-3-[(3-methoxy-1H-pyrrol-2-yl)methylene]-2H-indol-2-one]

IC50 [1]: < 1 µM
IC50 [2]: < 12.5 µM
IC50 [3]: < 20 µM
Compound: COc1cc[nH]c1/C=C1\C(=O)Nc2cccc(C#CCOc3ccccc3)c21 [Y, (Z)-1,3-Dihydro-3-[(3-methoxy-1H-pyrrol-2-yl)methylene]-4-(3-phenoxy-1-propynyl)-2H-indol-2-one]

IC50 [2]: < 12.5 µM
IC50 [3]: < 20 µM
Compound: C#CC(O)c1cccn1C (centres unmarked) [Z, 3-Hydroxy-3-(1-methyl-pyrrol-2-yl)-1-propyne]
